Assay results from patent US20250101001A1 (priority 2021, published 2025).

How the values were obtained:
5-HT2A [1] = target: T1, 5-HT2A (Homo sapiens, UniProt P28223); experiment: Serotonin 5-HT2A in vitro radioligand binding competition assay ([3H]-DOI); set-up: purchased Epics Therapeutics S. A. (Belgium) FAST-0505B; conditions: [3H]-DOI competition, membrane extracts
Procedure: Serotonin 5-HT2A In Vitro Radioligand Binding Competition Assay. The 5-HT2A radioligand binding competition assay was performed at Epics Therapeutics S. A. (Belgium, FAST-0505B) using conventional methods. Briefly, competition binding was performed in duplicate in the wells of a 96 well plate (Master Block, Greiner, 786201) containing binding buffer (optimized for each receptor), membrane extracts (amount of protein/well optimized for each receptor), radiotracer [^3H]-DOI (final concentration optimized for each receptor) and test compound. Nonspecific binding was determined by co-incubation with 200-fold excess of cold competitor. The samples were incubated in a final volume of 0.1 ml at a temperature and for a duration optimized for each receptor and then filtered over filter plates. Filters were washed six times with 0.5 ml of ice-cold washing buffer (optimized for each receptor) and 50 μl of Microscint 20 (Packard) were added in each well. The plates were incubated 15 min on an orbital shaker and then counted with a TopCount™ for 1 min/well.

5-HT2A [2] = target: T1, 5-HT2A; experiment: Serotonin 5-HT2A in vitro cellular IPOne antagonism assay; assay type: cell-based; set-up: host or cells: CHO-K1; conditions: CHO-K1 cells, IPOne HTRF, reference agonist a-Me-5HT
Procedure: Serotonin 5-HT2A and 5-HT2C In Vitro Cellular IPOne Antagonism Assay. The 5-HT2A and 5-HT2C IPOne HTRF assay was performed at Epics Therapeutics S.A. (Belgium, FAST-0505I) in antagonism mode using conventional methods. Briefly, CHO-K1 cells expressing human recombinant 5-HT2A or 5-HT2C receptor grown to mid-log phase in culture media without antibiotics were detached with PBS-EDTA, centrifuged, and resuspended in medium without antibiotics buffer. 20,000 cells were distributed in a 96 well plate and incubated overnight at 37° C. with 5% C02.
For antagonist testing, a reference agonist a-Me-5HT was added and fluorescence signal monitored for several minutes, followed by addition of 20 μlof assay buffer plus 20 μl of test compound or reference antagonist ketanserin, in each well. The plate was incubated for 60 min. at 37° C. with 5% CO2.
(§1) After addition of the lysis buffer containing IP1-d2 and anti-IP1 cryptate detection reagents, plates were incubated 1-hour at room temperature, and fluorescence ratios were measured according to the manufacturer specification, with the HTRF kit.

5-HT2A [3] = target: T1, 5-HT2A; experiment: Serotonin 5-HT2A in vitro cellular IPOne agonism assay; assay type: cell-based; set-up: host or cells: CHO-K1; conditions: CHO-K1 cells, IPOne HTRF, agonist mode
Procedure: Serotonin 5-HT2A In Vitro Cellular IPOne Agonism Assay. The 5-HT2A IPOne HTRF assay was performed at Epics Therapeutics S.A. (Belgium, FAST-0505I) using conventional methods. Briefly, CHO-K1 cells expressing human recombinant 5-HT2A receptor grown to mid-log phase in culture media without antibiotics were detached with PBS-EDTA, centrifuged, and resuspended in medium without antibiotics buffer. 20,000 cells are distributed in a 96 well plate and incubated overnight at 37° C. with 5% Co2.
For agonist testing, the medium was removed and […] of assay buffer plus 20 μl of test compound or reference agonist were added in each well. The plate was incubated for 60 min. at 37° C. with 5% CO2.
as §1

T1 sequence (P28223 whole entry): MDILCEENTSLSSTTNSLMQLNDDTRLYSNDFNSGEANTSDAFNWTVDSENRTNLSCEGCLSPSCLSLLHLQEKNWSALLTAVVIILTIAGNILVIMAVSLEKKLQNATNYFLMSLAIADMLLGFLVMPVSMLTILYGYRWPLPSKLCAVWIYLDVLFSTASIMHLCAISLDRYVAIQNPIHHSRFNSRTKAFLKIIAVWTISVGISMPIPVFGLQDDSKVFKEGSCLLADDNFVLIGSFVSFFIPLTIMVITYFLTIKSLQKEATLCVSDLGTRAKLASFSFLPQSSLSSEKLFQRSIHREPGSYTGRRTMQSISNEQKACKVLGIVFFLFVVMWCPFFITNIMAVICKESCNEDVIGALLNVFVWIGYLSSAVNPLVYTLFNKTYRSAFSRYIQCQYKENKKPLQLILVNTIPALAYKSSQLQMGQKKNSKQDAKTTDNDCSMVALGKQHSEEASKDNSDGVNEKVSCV

| SMILES | IC50 (5-HT2A [1]) [nM] | IC50 (5-HT2A [2]) [nM] | EC50 (5-HT2A [3]) [nM] |
| --- | --- | --- | --- |
| Cc1cn(C2CNC2)c2ccc(F)cc12 [Compound 1, 1-(azetidin-3-yl)-5-fluoro-3-methyl-1H-indole] | 101 to 1000 | 1000 to 10000 | > 10000 |
| Fc1ccc2c(ccn2C2CNC2)c1F [Compound 2, 1-(azetidin-3-yl)-4,5-difluoro-1H-indole] | 101 to 1000 | 101 to 1000 | > 10000 |
| Cc1cn(C2CCNCC2)c2ccc(F)cc12 [Compound 3, 5-fluoro-3-methyl-1-(piperidin-4-yl)-1H-indole] | 101 to 1000 | 101 to 1000 | > 10000 |
| Fc1ccc2c(ccn2C2CCNCC2)c1F [Compound 4, 4,5-difluoro-1-(piperidin-4-yl)-1H-indole] | 101 to 1000 | 101 to 1000 | > 10000 |
| Cc1cn(C2CN(C)C2)c2ccc(F)cc12 [Compound 5, 5-fluoro-3-methyl-1-(1-methylazetidin-3-yl)-1H-indole] | 101 to 1000 | 1000 to 10000 | > 10000 |
| CN1CC(n2ccc3c(F)c(F)ccc32)C1 [Compound 6, 4,5-Difluoro-1-(1-methylazetidin-3-yl)-1H-indole] | 101 to 1000 | 101 to 1000 | > 10000 |
| Cc1cn(C2CCN(C)C2)c2ccc(F)cc12 (centres unmarked) [Compound 7, 5-Fluoro-3-methyl-1-(1-methylpyrrolidin-3-yl)-1H-indole] | 1000 to 10000 | 1000 to 10000 | > 10000 |
| CN1CCC(n2ccc3c(F)c(F)ccc32)C1 (centres unmarked) [Compound 8, 4,5-difluoro-1-(1-methylpyrrolidin-3-yl)-1H-indole] | 101 to 1000 | 101 to 1000 | 101 to 1000 |
| Cc1cn(C2CCN(C)CC2)c2ccc(F)cc12 [Compound 9, 5-fluoro-3-methyl-1-(1-methylpiperidin-4-yl)-1H-indole] | 101 to 1000 | 101 to 1000 | > 10000 |
| CN1CCC(n2ccc3c(F)c(F)ccc32)CC1 [Compound 10, 4,5-difluoro-1-(1-methylpiperidin-4-yl)-1H-indole] | 101 to 1000 | 101 to 1000 | > 10000 |
| CC(C)c1cn(C2CCN(C)C2)c2ccc(F)cc12 (centres unmarked) [Compound 11, 5-fluoro-3-isopropyl-1-(1-methylpyrrolidin-3-yl)-1H-indole] | 1000 to 10000 | 101 to 1000 | > 10000 |
| CN1CCC(n2cc(-c3ccccc3)c3cc(F)ccc32)C1 (centres unmarked) [Compound 12, 5-fluoro-1-(1-methylpyrrolidin-3-yl)-3-phenyl-1H-indole] | 10 to 100 | 10 to 100 | > 10000 |
| Cc1cn(C2CCN(C)C2)c2ccc(OC3COC3)cc12 (centres unmarked) [Compound 13, 3-Methyl-1-(1-methylpyrrolidin-3-yl)-5-(oxetan-3-yloxy)-1H-indole] | > 10000 |  | > 10000 |
| Cc1cn(C2CCNC2)c2ccc(F)cc12 (centres unmarked) [Compound 14, 5-fluoro-3-methyl-1-(pyrrolidin-3-yl)-1H-indole] | 101 to 1000 | 101 to 1000 | 101 to 1000 |
| Fc1ccc2c(ccn2C2CCNC2)c1F (centres unmarked) [Compound 15, 4,5-Difluoro-1-(pyrrolidin-3-yl)-1H-indole] | 101 to 1000 | 101 to 1000 | 101 to 1000 |
| CCN1CCC(n2cc(C)c3cc(F)ccc32)C1 (centres unmarked) [Compound 16, 1-(1-Ethylpyrrolidin-3-yl)-5-fluoro-3-methyl-1H-indole] | 1000 to 10000 |  | > 10000 |

| SMILES | IC50 (5-HT2A [1]) [nM] | IC50 (5-HT2A [2]) [nM] | EC50 (5-HT2A [3]) [nM] |
| --- | --- | --- | --- |
| CCN1CCC(n2ccc3c(F)c(F)ccc32)C1 (centres unmarked) [Compound 17, 1-(1-ethylpyrrolidin-3-yl)-4,5-difluoro-1H-indole] | 1000 to 10000 | 1000 to 10000 | > 10000 |
| Cc1cn(C2CCN(C(C)C)C2)c2ccc(F)cc12 (centres unmarked) [Compound 18, 5-fluoro-1-(1-isopropylpyrrolidin-3-yl)-3-methyl-1H-indole] | 1000 to 10000 |  | > 10000 |
| CC(C)N1CCC(n2ccc3c(F)c(F)ccc32)C1 (centres unmarked) [Compound 19, 4,5-difluoro-1-(1-isopropylpyrrolidin-3-yl)-1H-indole] | 1000 to 10000 |  | > 10000 |
| Cc1cn(C2CCN(C3COC3)C2)c2ccc(F)cc12 (centres unmarked) [Compound 20, 5-fluoro-3-methyl-1-(1-(oxetan-3-yl)pyrrolidin-3-yl)-1H-indole] | > 10000 |  | > 10000 |
| Fc1ccc2c(ccn2C2CCN(C3COC3)C2)c1F (centres unmarked) [Compound 21, 4,5-difluoro-1-(1-(oxetan-3-yl)pyrrolidin-3-yl)-1H-indole] | > 10000 |  | > 10000 |
| COCCN1CCC(n2cc(C)c3cc(F)ccc32)C1 (centres unmarked) [Compound 22, 5-Fluoro-1-(1-(2-methoxyethyl)pyrrolidin-3-yl)-3-methyl-1H-indole] | 1000 to 10000 |  | > 10000 |
| COCCN1CCC(n2ccc3c(F)c(F)ccc32)C1 (centres unmarked) [Compound 23, 4,5-Difluoro-1-(1-(2-methoxyethyl)pyrrolidin-3-yl)-1H-indole] | 1000 to 10000 | 1000 to 10000 | > 10000 |
| Clc1ccc2c(ccn2C2CNC2)c1 [Compound 24, 1-(azetidin-3-yl)-5-chloro-1H-indole] | 1000 to 10000 | 101 to 1000 | > 10000 |
| N#Cc1ccc2c(ccn2C2CNC2)c1 [Compound 25, 1-(azetidin-3-yl)-1H-indole-5-carbonitrile] | > 10000 | > 10000 | > 10000 |
| Fc1cccc2ccn(C3CNC3)c12 [Compound 26, 1-(azetidin-3-yl)-7-fluoro-1H-indole] | 1000 to 10000 | 1000 to 10000 | 1000 to 10000 |
| Fc1ccc2c(ccn2C2CNC2)c1 [Compound 27, 1-(azetidin-3-yl)-5-fluoro-1H-indole] | 101 to 1000 | 101 to 1000 | > 10000 |
| Fc1ccc2ccn(C3CNC3)c2c1 [Compound 28, 1-(azetidin-3-yl)-6-fluoro-1H-indole] | 101 to 1000 | 101 to 1000 | > 10000 |
| COc1ccc2c(ccn2C2CNC2)c1 [Compound 29, 1-(azetidin-3-yl)-5-methoxy-1H-indole] | > 10000 | > 10000 | > 10000 |
| CN1CC(n2ccc3cc(F)ccc32)C1 [Compound 30, 5-fluoro-1-(1-methylazetidin-3-yl)-1H-indole] | 101 to 1000 | 101 to 1000 | > 10000 |
| COc1ccc2c(ccn2C2CN(C)C2)c1 [Compound 31, 5-methoxy-1-(1-methylazetidin-3-yl)-1H-indole] | > 10000 | > 10000 | > 10000 |
| CN1CC(n2ccc3c(F)cccc32)C1 [Compound 32, 4-fluoro-1-(1-methylazetidin-3-yl)-1H-indole] | 101 to 1000 | 101 to 1000 | > 10000 |
